These results are taken from US10894038B2, “Indolizine derivatives, composition and methods of use” (Shanghai Fochon Pharmaceutical Co., Ltd., priority 2015, dated 2021).

Test [1] deals with potassium oxonate-induced hyperuricemia in rats. Briefly: Effect on potassium oxonate-induced hyperuricemia in rats (serum uric acid). Type of test: in vivo, rat. To be noted: male SD rats, 5 mg/kg oral; for serum uric acid levels, time after dosing 0.5 h: 0.5 h after dosing; for serum uric acid levels, time after dosing 1 h: 1 h after dosing; for serum uric acid levels, time after dosing 2 h: 2 h after dosing; for serum uric acid levels, time after dosing 3 h: 3 h after dosing; for serum uric acid levels, time after dosing 4 h: 4 h after dosing. On the procedure:
Healthy male SD rats, weighing 250±20 g, were used. In the experiment, except for 10 rats as normal control group were orally administered with distilled water, the others were orally administered with yeast extract (20 g/kg, qd×5 days). One hour after last administration, all the rats were intraperitoneal injection with 250 mg/kg potassium oxonate while normal control group was treated with an equal volume of 0.5% CMC-Na (injection volume of 2 ml/kg). After one hour, rats were anesthetized with isoflurane and the serum uric acid was determined by uric acid test strip. All the rats were divided into groups by uric acid. The model control group and experimental groups was given orally administration 0.5% CMC-Na or compounds with a dose of 10 ml/kg-bw. Phosphotungstic acid precipitation method was used to detect serum uric acids in inner canthus blood at 0.5, 1, 2, 3, 4 h after administration, respectively. Substantially, observing the effects of compounds on serum uric acids levels and calculating each of groups' AUC and the inhibition of uric acid increased area by the equation as follows: […]
As shown in the equation, AUC0 indicated the AUC of model control group, AUC1 indicated the AUC of therapy group, AUC2 indicated the AUC of normal control group.

Test [2] has as its target URAT1 (Homo sapiens (Human), UniProt Q96S37). Kind of test: URAT1 in vitro inhibition activity, Method B (14C-uric acid uptake in HEK293-URAT1 cells). The conditions noted are these: 5.0 μmol/L 14C-uric acid, 2 min uptake. Type of test: cell-based. The protocol:
HEK293-URAT1 cell Lines were donated by Japan Fuji Biomedical Research Institute. Negative control cell of HEK293 (MOCK cells) which was transfected with pcDNA3.1 empty vector. HEK293-URAT1 cell lines and MOCK cell lines were cultured in complete growth medium consisting of DMEM supplemented with 10% FBS, penicillin and streptomycin.
Preparation of working solution: Each stock solutions was diluted to different concentrations (6, 20, 60, 200 and 600 μmol/L) with DMSO as 200× working solution, which was then diluted to 2×compound working solution with HBSS (Cl^− free) buffer. Radiolabeled substrate ^14C-Uric acid solution was diluted with HBSS (Cl^− free) buffer to obtain 2× working solution which was mixed with an equal volume of 2× compound working solution to obtain the mixture of radiolabeled substrate and compound working solution.
HER293-URAT1 and MOCK cells were seeded onto 24-well plates at the density of 1.5×10^6 cells per well. The cells were incubated at 37° C., 5% CO2 overnight. After cultured for approximately 2 to 3 days, cells were used for the experiments. The culture medium were removed from the wells, and cells were washed with HBSS (Cl^− free) and incubated in 37° C. HBSS (Cl^− free) for 10 min. HBSS was replaced with 500 μL of the mixture of radiolabeled substrate and compound working solution. The final concentration of ^14C-Uric acid in the assay was 5.0 μmol/L. Plates were incubated at 37° C., 5% CO2 for 2 min, and the reaction was stopped by the addition of pre-chilled HBSS (Cl^− free) by washing three times. 400 μL NaOH ([…]) was added to lyse the cells and the cell lysate was collected to scintillation vials, and 3 ml scintillant (Aquasol-2, PerkinElmer) was added and after mixing completely, the radioactivity was counted by Tri-Carb 2910TR liquid scintillation counter. Each concentration of compounds, positive control and negative control were repeated in two wells (n=2). Inhibition % data were calculated using the formula: Inhibition=[100×(U−U0)/(Uc−U0)]%, and analyzed using Prism5 software.
U0: Average of signals of MOCK cells;
Uc: Average of signals of radiolabeled substrate. The half inhibition concentration of the tested compounds to URAT1 were analyzed using Prism 5 software.

Sequence of URAT1 (Q96S37 whole entry, species assumed): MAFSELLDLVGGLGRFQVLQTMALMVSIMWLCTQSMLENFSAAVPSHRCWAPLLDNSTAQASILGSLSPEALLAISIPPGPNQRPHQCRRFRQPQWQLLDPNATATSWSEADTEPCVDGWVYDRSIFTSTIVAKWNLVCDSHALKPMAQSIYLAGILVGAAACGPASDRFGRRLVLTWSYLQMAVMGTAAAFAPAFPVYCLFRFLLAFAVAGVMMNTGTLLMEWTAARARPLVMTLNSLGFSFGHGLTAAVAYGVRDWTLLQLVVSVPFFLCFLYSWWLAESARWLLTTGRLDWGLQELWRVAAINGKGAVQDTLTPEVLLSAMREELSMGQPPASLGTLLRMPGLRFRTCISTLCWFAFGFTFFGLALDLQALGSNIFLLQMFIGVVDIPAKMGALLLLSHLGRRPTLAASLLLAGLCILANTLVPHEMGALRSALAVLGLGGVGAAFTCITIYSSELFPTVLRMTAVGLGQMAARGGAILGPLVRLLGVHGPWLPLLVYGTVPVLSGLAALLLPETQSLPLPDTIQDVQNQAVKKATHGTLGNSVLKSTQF

For the molecule `CC(C)(Sc1ccncc1-c1ccc(C#N)c2cc(Br)cn12)C(=O)O` [Example 16, 2-((3-(2-bromo-8-cyanoindolizin-5-yl)pyridin-4-yl)thio)-2-methylpropanoic acid], in test [1], the “serum uric acid levels, time after dosing 0.5 h” value is 460.6 ± 46.5 µmol/L; the “serum uric acid levels, time after dosing 1 h” value is 491.9 ± 77.4 µmol/L; the “serum uric acid levels, time after dosing 2 h” value came out at 380.6 ± 47.4 µmol/L; the “serum uric acid levels, time after dosing 3 h” value is 293.9 ± 42.1 µmol/L. Moreover, the “serum uric acid levels, time after dosing 4 h” value in test [1] worked out at 264.7 ± 38.8 µmol/L.
`COCC(C)(Sc1ccncc1-c1ccc(C#N)c2cccn12)C(=O)O` (stereo not drawn) [Example 31, 2-((3-(8-cyanoindolizin-5-yl)pyridin-4-yl)thio)-3-methoxy-2-methylpropanoic acid] gave an IC50 in test [2] of 504 nM.
As for `N#Cc1ccc(-c2cnccc2SC2(C(=O)O)CCC2)n2cc(Cl)cc12` [Example 13, 1-((3-(2-Chloro-8-cyanoindolizin-5-yl)pyridin-4-yl)thio)cyclobutane-1-carboxylic acid], the IC50 in test [2] was 26 nM. Further, in test [1], the “serum uric acid levels, time after dosing 0.5 h” value is 487.2 ± 46.9 µmol/L; the “serum uric acid levels, time after dosing 1 h” value was 523.6 ± 50.4 µmol/L; the “serum uric acid levels, time after dosing 2 h” value was 422.0 ± 54.1 µmol/L; the “serum uric acid levels, time after dosing 3 h” value was determined as 341.4 ± 69.4 µmol/L. Further, the “serum uric acid levels, time after dosing 4 h” value in test [1] came out at 295.5 ± 47.2 µmol/L.
Take `N#Cc1ccc(-c2cnccc2SC2(C(=O)O)CCC2)c2cc(F)cn12` [Example 12, 1-((3-(5-cyano-2-fluoroindolizin-8-yl)pyridin-4-yl)thio)cyclobutane-1-carboxylic acid]: in test [2], the IC50 was determined as 271 nM.
In turn, `N#Cc1ccc(-c2cnccc2SC2(C(=O)O)CCC2)c2cc(Cl)cn12` [Example 11, 1-((3-(2-chloro-5-cyanoindolizin-8-yl)pyridin-4-yl)thio)cyclobutane-1-carboxylic acid] had an IC50 in test [2] of 828 nM.
Molecule `CS(=O)(=O)c1cc2c(C#N)ccc(-c3cnccc3SC3(C(=O)O)CCC3)n2c1` [Example 19, 1-((3-(8-cyano-2-(methylsulfonyl)indolizin-5-yl)pyridin-4-yl)thio)cyclobutane-1-carboxylic acid] gave an IC50 in test [2] of 332 nM.
`CC(C)(Sc1ccncc1-c1ccc(C#N)n2cccc12)C(=O)O` [Example 9, 2-((3-(5-cyanoindolizin-8-yl)pyridin-4-yl)thio)-2-methylpropanoic acid]: in test [1], the “serum uric acid levels, time after dosing 0.5 h” value was determined as 432.1 ± 43.2 µmol/L; the “serum uric acid levels, time after dosing 1 h” value came out at 450.8 ± 40.9 µmol/L; the “serum uric acid levels, time after dosing 2 h” value came to 385.5 ± 52.2 µmol/L; the “serum uric acid levels, time after dosing 3 h” value stood at 347.1 ± 46.8 µmol/L. In test [1], the “serum uric acid levels, time after dosing 4 h” value is 336.3 ± 59.1 µmol/L.
For `N#Cc1ccc(-c2cnccc2SC2(C(=O)O)CCC2)n2c(Cl)ccc12` [Example 23, 1-((3-(3-chloro-8-cyanoindolizin-5-yl)pyridin-4-yl)thio)cyclobutane-1-carboxylic acid], the IC50 in test [2] turned out to be 89 nM.
Take `N#Cc1cc2c(C#N)ccc(-c3cnccc3SC3(C(=O)O)CCC3)n2c1` [Example 17, 1-((3-(2,8-dicyanoindolizin-5-yl)pyridin-4-yl)thio)cyclobutane-1-carboxylic acid]: half-maximal inhibition in test [2] (IC50) was put at 45 nM. For the same molecule, in test [1], the “serum uric acid levels, time after dosing 0.5 h” value amounted to 454.4 ± 39.8 µmol/L; the “serum uric acid levels, time after dosing 1 h” value worked out at 458.1 ± 66.7 µmol/L; the “serum uric acid levels, time after dosing 2 h” value was found to be 432.2 ± 67.6 µmol/L; the “serum uric acid levels, time after dosing 3 h” value turned out to be 403.0 ± 70.0 µmol/L. Also, in test [1], the “serum uric acid levels, time after dosing 4 h” value was 340.1 ± 56.0 µmol/L.
`N#Cc1ccc(-c2cnccc2SC2(C(=O)O)CCC2)c2ccc(Cl)n12` [Example 10, 1-((3-(3-chloro-5-cyanoindolizin-8-yl)pyridin-4-yl)thio)cyclobutane-1-carboxylic acid]: the IC50 in test [2] turned out to be 424 nM.
Same read-out and setting: then `N#Cc1ccc(-c2cnccc2SC2(C(=O)O)CCC2)n2ccc(F)c12` [Example 21, 1-((3-(8-cyano-1-fluoroindolizin-5-yl)pyridin-4-yl)thio)cyclobutane-1-carboxylic acid], with 85 nM.
In test [2], `CC(C)(Sc1ccncc1-c1ccc(C#N)c2cc(Cl)cn12)C(=O)O` [Example 14, 2-((3-(2-chloro-8-cyanoindolizin-5-yl)pyridin-4-yl)thio)-2-methylpropanoic acid] showed an IC50 of 30 nM. Besides, in test [1], the “serum uric acid levels, time after dosing 0.5 h” value is 476.3 ± 53.4 µmol/L; the “serum uric acid levels, time after dosing 1 h” value stood at 489.5 ± 83.1 µmol/L; the “serum uric acid levels, time after dosing 2 h” value came out at 385.8 ± 68.2 µmol/L; the “serum uric acid levels, time after dosing 3 h” value was 337.2 ± 72.4 µmol/L. Further, the “serum uric acid levels, time after dosing 4 h” value in test [1] was 285.4 ± 47.7 µmol/L.
With `N#Cc1ccc(-c2cnccc2SC2(C(=O)O)CCC2)c2cccn12` [Example 8, 1-((3-(5-cyanoindolizin-8-yl)pyridin-4-yl)thio)cyclobutane-1-carboxylic acid], in test [2], the IC50 came to 55 nM. Besides, in test [1], the “serum uric acid levels, time after dosing 0.5 h” value was found to be 449.8 ± 39.8 µmol/L; the “serum uric acid levels, time after dosing 1 h” value worked out at 483.9 ± 62.9 µmol/L; the “serum uric acid levels, time after dosing 2 h” value is 451.2 ± 58.9 µmol/L; the “serum uric acid levels, time after dosing 3 h” value is 393.9 ± 68.6 µmol/L. Besides, the “serum uric acid levels, time after dosing 4 h” value in test [1] worked out at 358.3 ± 68.2 µmol/L.
`N#Cc1ccc(-c2cnccc2SC2(C(=O)O)CCC2)n2c(F)ccc12` [Example 20, 1-((3-(8-Cyano-3-fluoroindolizin-5-yl)pyridin-4-yl)thio)cyclobutane-1-carboxylic acid]: the midpoint of inhibition in test [2], the IC50, lay at 34 nM.
`N#Cc1ccc(-c2cnccc2SC2(C(=O)O)CCC2)n2cc(Br)cc12` [Example 15, 1-((3-(2-bromo-8-cyanoindolizin-5-yl)pyridin-4-yl)thio)cyclobutane-1-carboxylic acid] displayed an IC50 in test [2] of 29 nM. In test [1], the “serum uric acid levels, time after dosing 0.5 h” value was 476.8 ± 61.7 µmol/L; the “serum uric acid levels, time after dosing 1 h” value was found to be 496.3 ± 74.8 µmol/L; the “serum uric acid levels, time after dosing 2 h” value was determined as 401.7 ± 52.9 µmol/L; the “serum uric acid levels, time after dosing 3 h” value is 331.3 ± 70.5 µmol/L. In test [1], the “serum uric acid levels, time after dosing 4 h” value was 278.0 ± 46.0 µmol/L.

A word on the IC50: it is the concentration at which inhibition is half-maximal. Lower therefore signals greater potency in that assay.
